Patent US6810371B1 (priority 1906, dated 2004)
Where two headings read alike, the source gives them in different places.

Columns and labels:
[1] = tested on: rat; assay: Non-influential amount of a rat (inhalation, percutaneous, oral toxicity tests); assay type: in vivo; conditions: for non-influential in-air concentration: 4-week inhalation test (d-phenothrin 4 h/day, 6 days a week; d-tetramethrin 3 h/day, 7 days a week); for non-influential amount in inhalation: 4-week test (d-phenothrin 4 h/day, 6 days a week; d-tetramethrin 3 h/day, 7 days a week), respiration 0.365 L/min/kg; for non-influential amount for oral exposure: 6-month test; for non-influential amount for percutaneous exposure: 21-day test
Source text: (6-month test) for oral exposure. […] (6-month test) for oral exposure.

[2] = Estimated exposure amount of inhabitants (inhalation, percutaneous, oral); conditions: for estimated PERCUTANEOUS exposure amount: contact area 4.0 m^2/day; for estimated exposure amount in INHALATION (WINDOW CLOSED): exposure time 24 h/day; for estimated exposure amount in INHALATION (WINDOW OPEN): window opened for 5 minutes after spraying; for estimated ORAL exposure amount: hand surface area ratio about 5 %, oral transference ratio 100 %
Source text: estimated exposure amount in inhalation [mg/kg/day]=mean concentration in indoor air [mg/m^3]×amount of respiration [m^3/kg/min]×exposure time [min/day]
estimated percutaneous exposure amount [mg/kg/day]=(mean residual amount [mg/m^2]×skin attachment ratio [%]×contact area [m^2/day])/body weight [kg]
estimated oral exposure amount [mg/kg/day]=estimated percutaneous exposure amount [mg/kg/day]×hand surface area ratio [%]×oral transference ratio [%]
Here, the mean indoor respiration amount of Japanese is 0.220 [L/min/kg] for an adult, and 0.235 [L/min/kg] for an infant. Also, the exposure time was presumed to be 24 [h/day], taking account of the worst case where inhabitants are confined in the room for 24 hours after spraying.
In the table, “window closed” refers to the case where the window is closed throughout the exposure time, whereas “window open” refers to the case where spraying was effected in the state with the closed window and then the window was opened for 5 minutes (Example 3).
Here, it was assumed that the contact area for an infant and an adult was 4.0 [m^2/day], the body weight of the infant was 10.2 [kg], and the body weight of the adult was 50 [kg]. […] These values were used for calculating the estimated percutaneous exposure amount.
Here, while the hand surface area ratio was assumed to be about 5[%], and the oral transference ratio was presumed to be the worst case of 100[%], only the estimated oral exposure amount of the infant was calculated.

[3] = Experimental: Finally, if it is judged to be safe at S8, S12, or S15, overall safety is evaluated. Here, the sum of respective reciprocals of the previously determined inhalation safety coefficient, percutaneous safety coefficient, and oral safety coefficient is determined, and the reciprocal of thus determined value is defined as an overall safety coefficient (S16).
inhalation safety coefficient=inhalation non-influential amount [mg/kg/day]/estimated exposure amount in inhalation [mg/kg/day]
percutaneous safety coefficient=percutaneous non-influential amount [mg/kg/day]/estimated percutaneous exposure amount [mg/kg/day]
oral safety coefficient=oral non-influential amount [mg/kg/day]/estimated oral exposure amount [mg/kg/day]

[4] = ADULT, respiration 0.220 L/min/kg
[5] = INFANT, respiration 0.235 L/min/kg

For `CC(C)=CC1[C@@H](C(=O)OCc2cccc(Oc3ccccc3)c2)C1(C)C` (stereo in doubt) [d-phenothrin], the non-influential in-air concentration [1] was 210 mg/m^3, the “non-influential amount in inhalation” value [1] was 18.4 mg/kg/day and the “non-influential amount for oral exposure” value [1] was 125 mg/kg/day. The “non-influential amount for percutaneous exposure” value [1] was 1000 mg/kg/day, the “estimated PERCUTANEOUS exposure amount” value ([2]; ADULT, body weight 50 kg) was 0.553 and the “estimated exposure amount in INHALATION (WINDOW CLOSED)” value [2, 4] was 0.744. The “estimated exposure amount in INHALATION (WINDOW OPEN)” value ([2]; ADULT) was 0.149, the “estimated PERCUTANEOUS exposure amount” value ([2]; INFANT, body weight 10.2 kg) was 2.71 and the “estimated exposure amount in INHALATION (WINDOW CLOSED)” value [2, 5] was 0.795. The “estimated ORAL exposure amount” value ([2]; INFANT) was 0.135, the “estimated exposure amount in INHALATION (WINDOW OPEN)” value ([2]; INFANT) was 0.159 and the “INHALATION (WINDOW CLOSED) safety coefficient” value ([3]; ADULT) was 24,700. The “INHALATION (WINDOW OPEN) safety coefficient” value ([3]; ADULT) was 124,000, the PERCUTANEOUS safety coefficient ([3]; ADULT) was 1,810,000 and the “TOTAL (WINDOW CLOSED) safety coefficient” value ([3]; ADULT) was 24,400. For the same compound, the “TOTAL (WINDOW OPEN) safety coefficient” value ([3]; ADULT) was 116,000, the “INHALATION (WINDOW CLOSED) safety coefficient” value ([3]; INFANT) was 23,100 and the “INHALATION (WINDOW OPEN) safety coefficient” value ([3]; INFANT) was 116,000. For the same compound, the ORAL safety coefficient ([3]; INFANT) was 923,000, the PERCUTANEOUS safety coefficient ([3]; INFANT) was 369,000 and the “TOTAL (WINDOW CLOSED) safety coefficient” value ([3]; INFANT) was 21,300. For the same compound, the “TOTAL (WINDOW OPEN) safety coefficient” value ([3]; INFANT) was 80,400.
In the case of `CC(C)=CC1[C@@H](C(=O)OCN2C(=O)C3=C(CCCC3)C2=O)C1(C)C` (stereo in doubt) [d-tetramethrin], the non-influential in-air concentration [1] is reported as 49 mg/m^3, the “non-influential amount in inhalation” value [1] is reported as 3.22 mg/kg/day and the “non-influential amount for oral exposure” value [1] is reported as 10.75 mg/kg/day. For the same compound, the “non-influential amount for percutaneous exposure” value [1] was 1000 mg/kg/day, the “estimated PERCUTANEOUS exposure amount” value ([2]; ADULT, body weight 50 kg) was 0.438 and the “estimated exposure amount in INHALATION (WINDOW CLOSED)” value [2, 4] was 1.01. The “estimated exposure amount in INHALATION (WINDOW OPEN)” value ([2]; ADULT) was 0.202, the “estimated PERCUTANEOUS exposure amount” value ([2]; INFANT, body weight 10.2 kg) was 2.15 and the “estimated exposure amount in INHALATION (WINDOW CLOSED)” value [2, 5] was 1.12. The “estimated ORAL exposure amount” value ([2]; INFANT) was 0.107 and the “estimated exposure amount in INHALATION (WINDOW OPEN)” value ([2]; INFANT) was 0.224.
